Assay results taken from US6872690B2, “Herbicidal 2-alkynyl-pyri (mi) dines” (WYETH, priority 2001, dated 2005).

Columns and labels:
Assay type in all cases: in vivo
Triticum aestivum [1] = experiment: Post-emergence herbicidal activity test; conditions: 2-4 weeks after treatment
Procedure, shortened: (§1)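 Compounds in acetone solution were diluted with water and sprayed onto seedling plants at dosages equivalent to about 0.025 to 0.4 kg test compound per hectare per pot. Plants were then kept on greenhouse benches under conventional care and visually rated on a scoring scale 2 to 4 weeks after treatment.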

Alopecurus myosuroides [2] = experiment: Post-emergence herbicidal activity test; conditions: 2-4 weeks after treatment
Procedure, shortened: as §1

Cassia obtusifolia [3] = experiment: Post-emergence herbicidal activity test; conditions: 2-4 weeks after treatment
Procedure, shortened: as §1

Orysa sativa [4] = experiment: Post-emergence herbicidal activity test; conditions: 2-4 weeks after treatment
Procedure, shortened: as §1

Echinochloa crus-galli [5] = experiment: Post-emergence herbicidal activity test; conditions: 2-4 weeks after treatment
Procedure, shortened: as §1

Digitaria sanguinalis [6] = experiment: Post-emergence herbicidal activity test; conditions: 2-4 weeks after treatment
Procedure, shortened: as §1

Matricaria inodora [7] = experiment: Post-emergence herbicidal activity test; conditions: 2-4 weeks after treatment
Procedure, shortened: as §1

Ipomoea hederacea [8] = experiment: Post-emergence herbicidal activity test; conditions: 2-4 weeks after treatment
Procedure, shortened: as §1

Glycine max [9] = experiment: Post-emergence herbicidal activity test; conditions: 0.100 kg/ha, 2-4 weeks after treatment
Procedure, shortened: as §1

Abutilon theophrasti [10] = experiment: Post-emergence herbicidal activity test; conditions: 2-4 weeks after treatment
Procedure, shortened: as §1

Galium aparine [11] = experiment: Post-emergence herbicidal activity test; conditions: 2-4 weeks after treatment
Procedure, shortened: as §1

Stellaria media = experiment: Post-emergence herbicidal activity test; conditions: 2-4 weeks after treatment
Procedure, shortened: as §1

Zea mays [12] = experiment: Post-emergence herbicidal activity test; conditions: 2-4 weeks after treatment
Procedure, shortened: as §1

Setaria viridis [13] = experiment: Post-emergence herbicidal activity test; conditions: 2-4 weeks after treatment
Procedure, shortened: as §1

Ambrosia artemisifolia [14] = experiment: Post-emergence herbicidal activity test; conditions: 2-4 weeks after treatment
Procedure, shortened: as §1

Triticum aestivum [15] = experiment: Pre-emergence test; conditions: 3 weeks after treatment
Procedure, shortened: (§2)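 Seeds sown in horticultural loam; compound in acetone containing 0.4% wetting agent, then diluted in water; formulation sprayed onto the soil surface at 900 L/ha; rates of 0.013, 0.025, 0.100 and 0.400 kg/ha; pots rated after 2–4 weeks against untreated controls.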

Lamium purpureum = experiment: Pre-emergence test; conditions: 3 weeks after treatment
Procedure, shortened: as §2

Alopecurus myosuroides [16] = experiment: Pre-emergence test; conditions: 3 weeks after treatment
Procedure, shortened: as §2

Cassia obtusifolia [17] = experiment: Pre-emergence test; conditions: 3 weeks after treatment
Procedure, shortened: as §2

Orysa sativa [18] = experiment: Pre-emergence test; conditions: 3 weeks after treatment
Procedure, shortened: as §2

Echinochloa crus-galli [19] = experiment: Pre-emergence test; conditions: 3 weeks after treatment
Procedure, shortened: as §2

Digitaria sanguinalis [20] = experiment: Pre-emergence test; conditions: 3 weeks after treatment
Procedure, shortened: as §2

Matricaria inodora [21] = experiment: Pre-emergence test; conditions: 3 weeks after treatment
Procedure, shortened: as §2

Ipomoea hederacea [22] = experiment: Pre-emergence test; conditions: 3 weeks after treatment
Procedure, shortened: as §2

Glycine max [23] = experiment: Pre-emergence test; conditions: 3 weeks after treatment
Procedure, shortened: as §2

Abutilon theophrasti [24] = experiment: Pre-emergence test; conditions: 3 weeks after treatment
Procedure, shortened: as §2

Galium aparine [25] = experiment: Pre-emergence test; conditions: 3 weeks after treatment
Procedure, shortened: as §2

Zea mays [26] = experiment: Pre-emergence test; conditions: 3 weeks after treatment
Procedure, shortened: as §2

Setaria viridis [27] = experiment: Pre-emergence test; conditions: 3 weeks after treatment
Procedure, shortened: as §2

Ambrosia artemisifolia [28] = experiment: Pre-emergence test; conditions: 3 weeks after treatment
Procedure, shortened: as §2

## Cc1cc(Oc2cc(C(F)(F)F)nn2C)nc(C#Cc2ccccc2)n1 [Example 161]
Triticum aestivum [1]; 0.100 kg/ha
  Post-emergence application TRZWA: 2 (2-Slight effect)
Triticum aestivum [1]; 0.400 kg/ha
  Post-emergence application TRZWA: 2 (2-Slight effect)
Alopecurus myosuroides [2]; 0.100 kg/ha
  Post-emergence application ALOMY: 2 (2-Slight effect)
Alopecurus myosuroides [2]; 0.400 kg/ha
  Post-emergence application ALOMY: 3 (3-Moderate effect)
Cassia obtusifolia [3]; 0.100 kg/ha
  Post-emergence application CASOB: 1 (1-Trace effect)
Cassia obtusifolia [3]; 0.400 kg/ha
  Post-emergence application CASOB: 3 (3-Moderate effect)
Orysa sativa [4]; 0.100 kg/ha
  Post-emergence application ORYSA: 2 (2-Slight effect)
Orysa sativa [4]; 0.400 kg/ha
  Post-emergence application ORYSA: 3 (3-Moderate effect)
Echinochloa crus-galli [5]; 0.100 kg/ha
  Post-emergence application ECHCG: 1 (1-Trace effect)
Echinochloa crus-galli [5]; 0.400 kg/ha
  Post-emergence application ECHCG: 2 (2-Slight effect)
Digitaria sanguinalis [6]; 0.100 kg/ha
  Post-emergence application DIGSA: 2 (2-Slight effect)
Digitaria sanguinalis [6]; 0.400 kg/ha
  Post-emergence application DIGSA: 2 (2-Slight effect)
Matricaria inodora [7]; 0.100 kg/ha
  Post-emergence application MATIN: 3 (3-Moderate effect)
Matricaria inodora [7]; 0.400 kg/ha
  Post-emergence application MATIN: 4 (4-Injury)
Ipomoea hederacea [8]; 0.100 kg/ha
  Post-emergence application IPOHE: 9 (9-Complete kill)
Ipomoea hederacea [8]; 0.400 kg/ha
  Post-emergence application IPOHE: 9 (9-Complete kill)
Glycine max [9]
  Post-emergence application GLXMA: 3 (3-Moderate effect)
Abutilon theophrasti [10]; 0.100 kg/ha
  Post-emergence application ABUTH: 4 (4-Injury)
Abutilon theophrasti [10]; 0.400 kg/ha
  Post-emergence application ABUTH: 5 (5-Definite injury)
Galium aparine [11]; 0.100 kg/ha
  Post-emergence application GALAP: 7 (7-Good herbicidal effect)
Galium aparine [11]; 0.400 kg/ha
  Post-emergence application GALAP: 8 (8-Approaching complete kill)
Stellaria media; 0.100 kg/ha
  Post-emergence application STEME: 2 (2-Slight effect)
Stellaria media; 0.400 kg/ha
  Post-emergence application STEME: 4 (4-Injury)
Zea mays [12]; 0.100 kg/ha
  Post-emergence application ZEAMX: 2 (2-Slight effect)
Zea mays [12]; 0.400 kg/ha
  Post-emergence application ZEAMX: 2 (2-Slight effect)
Setaria viridis [13]; 0.100 kg/ha
  Post-emergence application SETVI: 4 (4-Injury)
Setaria viridis [13]; 0.400 kg/ha
  Post-emergence application SETVI: 6 (6-Herbicidal effect)
Ambrosia artemisifolia [14]; 0.100 kg/ha
  Post-emergence application AMBEL: 5 (5-Definite injury)
Ambrosia artemisifolia [14]; 0.400 kg/ha
  Post-emergence application AMBEL: 5 (5-Definite injury)
Triticum aestivum [15]; 0.025 kg/ha
  Assessment (pre-emergence application) TRZWA: 0 (0-No effect)
Triticum aestivum [15]; 0.100 kg/ha
  Assessment (pre-emergence application) TRZWA: 0 (0-No effect)
Triticum aestivum [15]; 0.400 kg/ha
  Assessment (pre-emergence application) TRZWA: 0 (0-No effect)
Lamium purpureum; 0.025 kg/ha
  Assessment (pre-emergence application) LAMPU: 0 (0-No effect)
Lamium purpureum; 0.100 kg/ha
  Assessment (pre-emergence application) LAMPU: 5 (5-Definite injury)
Lamium purpureum; 0.400 kg/ha
  Assessment (pre-emergence application) LAMPU: 7 (7-Good herbicidal effect)
Alopecurus myosuroides [16]; 0.025 kg/ha
  Assessment (pre-emergence application) ALOMY: 9 (9-Complete kill)
Alopecurus myosuroides [16]; 0.100 kg/ha
  Assessment (pre-emergence application) ALOMY: 1 (1-Trace effect)
Alopecurus myosuroides [16]; 0.400 kg/ha
  Assessment (pre-emergence application) ALOMY: 3 (3-Moderate effect)
Cassia obtusifolia [17]; 0.025 kg/ha
  Assessment (pre-emergence application) CASOB: 0 (0-No effect)
Cassia obtusifolia [17]; 0.100 kg/ha
  Assessment (pre-emergence application) CASOB: 0 (0-No effect)
Cassia obtusifolia [17]; 0.400 kg/ha
  Assessment (pre-emergence application) CASOB: 0 (0-No effect)
Orysa sativa [18]; 0.025 kg/ha
  Assessment (pre-emergence application) ORYSA: 0 (0-No effect)
Orysa sativa [18]; 0.100 kg/ha
  Assessment (pre-emergence application) ORYSA: 1 (1-Trace effect)
Orysa sativa [18]; 0.400 kg/ha
  Assessment (pre-emergence application) ORYSA: 1 (1-Trace effect)
Echinochloa crus-galli [19]; 0.025 kg/ha
  Assessment (pre-emergence application) ECHCG: 0 (0-No effect)
Echinochloa crus-galli [19]; 0.100 kg/ha
  Assessment (pre-emergence application) ECHCG: 1 (1-Trace effect)
Echinochloa crus-galli [19]; 0.400 kg/ha
  Assessment (pre-emergence application) ECHCG: 3 (3-Moderate effect)
Digitaria sanguinalis [20]; 0.025 kg/ha
  Assessment (pre-emergence application) DIGSA: 1 (1-Trace effect)
Digitaria sanguinalis [20]; 0.100 kg/ha
  Assessment (pre-emergence application) DIGSA: 3 (3-Moderate effect)
Digitaria sanguinalis [20]; 0.400 kg/ha
  Assessment (pre-emergence application) DIGSA: 9 (9-Complete kill)
Matricaria inodora [21]; 0.025 kg/ha
  Assessment (pre-emergence application) MATIN: 3 (3-Moderate effect)
Matricaria inodora [21]; 0.100 kg/ha
  Assessment (pre-emergence application) MATIN: 4 (4-Injury)
Matricaria inodora [21]; 0.400 kg/ha
  Assessment (pre-emergence application) MATIN: 8 (8-Approaching complete kill)
Ipomoea hederacea [22]; 0.025 kg/ha
  Assessment (pre-emergence application) IPOHE: 0 (0-No effect)
Ipomoea hederacea [22]; 0.100 kg/ha
  Assessment (pre-emergence application) IPOHE: 3 (3-Moderate effect)
Ipomoea hederacea [22]; 0.400 kg/ha
  Assessment (pre-emergence application) IPOHE: 3 (3-Moderate effect)
Glycine max [23]; 0.025 kg/ha
  Assessment (pre-emergence application) GLXMA: 0 (0-No effect)
Glycine max [23]; 0.100 kg/ha
  Assessment (pre-emergence application) GLXMA: 0 (0-No effect)
Glycine max [23]; 0.400 kg/ha
  Assessment (pre-emergence application) GLXMA: 1 (1-Trace effect)
Abutilon theophrasti [24]; 0.025 kg/ha
  Assessment (pre-emergence application) ABUTH: 2 (2-Slight effect)
Abutilon theophrasti [24]; 0.100 kg/ha
  Assessment (pre-emergence application) ABUTH: 4 (4-Injury)
Abutilon theophrasti [24]; 0.400 kg/ha
  Assessment (pre-emergence application) ABUTH: 4 (4-Injury)
Galium aparine [25]; 0.025 kg/ha
  Assessment (pre-emergence application) GALAP: 1 (1-Trace effect)
Galium aparine [25]; 0.100 kg/ha
  Assessment (pre-emergence application) GALAP: 1 (1-Trace effect)
Galium aparine [25]; 0.400 kg/ha
  Assessment (pre-emergence application) GALAP: 3 (3-Moderate effect)
Zea mays [26]; 0.025 kg/ha
  Assessment (pre-emergence application) ZEAMX: 0 (0-No effect)
Zea mays [26]; 0.100 kg/ha
  Assessment (pre-emergence application) ZEAMX: 0 (0-No effect)
Zea mays [26]; 0.400 kg/ha
  Assessment (pre-emergence application) ZEAMX: 0 (0-No effect)
Setaria viridis [27]; 0.025 kg/ha
  Assessment (pre-emergence application) SETVI: 2 (2-Slight effect)
Setaria viridis [27]; 0.100 kg/ha
  Assessment (pre-emergence application) SETVI: 4 (4-Injury)
Setaria viridis [27]; 0.400 kg/ha
  Assessment (pre-emergence application) SETVI: 7 (7-Good herbicidal effect)
Ambrosia artemisifolia [28]; 0.025 kg/ha
  Assessment (pre-emergence application) MBEL: 2 (2-Slight effect)
Ambrosia artemisifolia [28]; 0.100 kg/ha
  Assessment (pre-emergence application) MBEL: 2 (2-Slight effect)
